Experimental data as given in US20130053305A1, “PEPTIDE COMPOUNDS THAT CAN BE USED AS ANTIBACTERIAL AGENTS” (UNIVERSIDAD DE BARCELONA, priority 2010, published 2013).
Where two headings read alike, the source gives them in different places. Positions of bridges follow the written chain, without caps; N, C: chain ends. Non-standard residues stand in square brackets, D forms with d. Residues, ends and D or L forms follow the SMILES beside them. *: point of attachment. Nonanoyl = CCCCCCCCC(=O)*; X1 = CC[C@H](C)CCCCC(=O)*; Dab = NCC[C@H](N)C(=O)O

Assays:
[1] = tested on: Salmonella typhimurium ATCC 14028; format: cell-based
Procedure: (§1) The antibacterial activity of the lipopeptides was measured in sterile 96-well plates (Corning Costar 3598 microtiter plates). Samples of a final volume of 200 μL were prepared as follows: aliquots (100 μL) of a suspension containing bacteria at a concentration of 10^5 colony-forming units/mL in culture medium (MH, Muller Hinton Broth, Difco, USA), adjusted at pH 7.4, were added to 100 μL of solution containing the peptide prepared from a stock solution of 1 mg/mL peptide in water in serial 2-fold dilutions in MH broth adjusted to pH 7.4 (Jorgensen and Turnide, 2003).
(§2) Inhibition of bacterial growth was determined by measuring the absorbance at 492 nm with a Absorbance Microplate reader ELx 800 (Bio-tek Instruments) after an incubation of 24-48 h at 37° C. Antibacterial activities are expressed as the MIC, the concentration at which no growth is observed after 24-48 h of incubation.
(§3) Microorganisms were cultured on Tryptycase Soy Broth (Pronadisa, Barcelona) and incubated at 37° C. until bacterial growth was observed. Then a loopful was streaked on Trypticase Soy Agar (Pronadisa, Barcelona) and incubated at 37° C. until colony formation occurred. Microorganisms were preserved on cryobilles (EAS laboratoire, France) at −20° C.
(§4) Bacterial strains used for the antibacterial activity tests were obtained from the American Type Culture Collection (ATCC, Rockville, Md., USA):
(§5) Escherichia coli ATCC 8739 Pseudomonas aeruginosa ATCC 9027 Salmonella typhimurium ATCC 14028

[2] = tested on: Pseudomonas aeruginosa ATCC 9027; format: cell-based
Procedure: as §1, §2, §3, §4, §5

[3] = tested on: Escherichia coli ATCC 8739; format: cell-based
Procedure: as §1, §2, §3, §4, §5

[4] = tested on: Microccous luteus ATCC 9341; format: cell-based, Micrococcus luteus
Procedure: as §1, §2, §3
(§6) Bacterial strains used for the antibacterial activity tests were obtained from the American Type Culture Collection (ATCC, Rockville, Md., USA): […]

[5] = tested on: Acinetobacter sp ATCC 5798; format: cell-based
Procedure: as §1, §2, §3, §4
Acinetobacter sp ATCC 5798

[6] = tested on: Staphylococcus aureus ATCC 6538; format: cell-based
Procedure: as §1, §2, §3, §6

[7] = tested on: Mycobacterium phlei ATCC 41423; format: cell-based
Procedure: as §1, §2, §3, §6

[8] = tested on: Gram positive bacteria; test: Antibacterial test, summary for Gram positive bacteria; format: cell-based; details: summary in words
Procedure: as §1, §2, §3, §6

[9] = MH broth pH 7.4, 24-48 h at 37° C.
[10] = Table 2 values displayed in micromolar units
[11] = Table 1 values displayed in micromolar units

Row | SMILES | MIC Salmonella typhimurium 14028 ([1]; ATCC 14028) [µM] | MIC Salmonella typhimurium 14028 ([1]; ATCC 14028, pH 7.4) [µg/mL] | MIC Pseudomonas aeruginosa 9027 ([2]; ATCC 9027) [µM] | MIC Pseudomonas aeruginosa 9027 ([2]; ATCC 9027, pH 7.4) [µg/mL] | MIC Escherichia coli 8739 ([3]; ATCC 8739) [µM] | MIC Micrococcus luteus ([4]; ATCC 9341) [µM] | MIC Micrococcus luteus [4, 9] [µg/mL] | MIC Acinetobacter sp ATCC 5798 ([5]; ATCC 5798) [µM] | MIC Staphylococcus aureus ([6]; ATCC 6538) [µM] | MIC Staphylococcus aureus [6, 9] [µg/mL] | MIC Micobacterium phlei ([7]; ATCC 41423) [µM] | MIC Micobacterium phlei ([7]; ATCC 41423, pH 7.4) [µg/mL] | MIC Salmonella typhimurium 14028 [1, 9] [µg/mL] | MIC Pseudomonas aeruginosa 9027 [2, 9] [µg/mL] | MIC Escherichia coli 8739 [3, 9] [µg/mL] | MIC Acinetobacter sp ATCC 5798 [5, 9] [µg/mL] | MIC Micobacterium phlei [7, 9] [µg/mL] | other results
1 | CCCCCCCCC(=O)N[C@@H](CCCNC(=N)N)C(=O)N[C@H](C(=O)N[C@@H](CCN)C(=O)N[C@H]1CSSC[C@@H](C(=O)N[C@@H](CC(C)C)C(=O)N[C@@H](CCSC)C(=O)N[C@@H](Cc2c[nH]c3ccccc23)C(=O)N[C@@H](Cc2c[nH]c3ccccc23)C(=O)N[C@@H](CCSC)C(=O)N[C@@H](CC(C)C)C(N)=O)NC(=O)[C@H](CCN)NC(=O)[C@H](CCCNC(=N)N)NC(=O)[C@H](CC(C)C)NC(=O)[C@@H](Cc2ccccc2)NC(=O)[C@H](CCN)NC1=O)[C@@H](C)O [(Ib6), nonanoyl-Arg-Thr-Dab-cyclo(S—S)[Cys-Dab-DPhe-Leu-Arg-Dab-Cys]-Leu-Met-Trp-Trp-Met-Leu] (Nonanoyl-RT[Dab]C[Dab][dF]LR[Dab]CLMWWML-NH2; disulfide 4-10) | >14.56 | >32 | >14.56 | >32 | >14.56 | 3.64 | 8 | 3.64 to 7.28 | 7.28 | 16 | >14.56 | >32 | – | – | – | – | – | MIC Escherichia coli 8739 ([3]; ATCC 8739, pH 7.4): >32 µg/mL; MIC Acinetobacter sp ATCC 5798 ([5]; ATCC 5798, pH 7.4): 8 to 16 µg/mL
2 | CC[C@H](C)CCCCC(=O)N[C@@H](CCN)C(=O)N[C@H](C(=O)N[C@@H](CCN)C(=O)N[C@H]1CCNC(=O)[C@H]([C@@H](C)O)NC(=O)[C@H](CCN)NC(=O)[C@H](CCN)NC(=O)[C@H](CC(C)C)NC(=O)[C@@H](Cc2ccccc2)NC(=O)[C@H](CCN)NC1=O)[C@@H](C)O [PxB, (S)-6-methyloctanoyl-Dab-Thr-Dab-cyclo(4-10)[Dab-Dab-DPhe-Leu-Dab-Dab-Thr], reference compound] (X1-[Dab]T[Dab][Dab][Dab][dF]L[Dab][Dab]T; lactam 4-C) | – | – | – | – | – | – | 32 | – | – | >32 | – | – | 1 | 2 | 1 to 2 | 0.5 | 32 | MIC Salmonella typhimurium 14028 [1, 10]: 0.84 µM; MIC Pseudomonas aeruginosa 9027 [2, 10]: 1.68 µM; MIC Escherichia coli 8739 [3, 10]: 0.84 to 1.68 µM; antibacterial activity in Gram positive bacteria [8]: does not show activity against Gram positive bacteria; MIC Micrococcus luteus [4, 11]: 26.90 µM; MIC Acinetobacter sp ATCC 5798 [5, 10]: 0.42 µM; MIC Staphylococcus aureus [6, 11]: >26.90 µM; MIC Micobacterium phlei [7, 11]: 26.90 µM
3 | CCCCCCCCC(=O)N[C@@H](CCCNC(=N)N)C(=O)N[C@H](C(=O)N[C@@H](CCN)C(=O)N[C@H]1CSSC[C@H](C(N)=O)NC(=O)[C@H](CCN)NC(=O)[C@H](CCCNC(=N)N)NC(=O)[C@H](CC(C)C)NC(=O)[C@@H](Cc2ccccc2)NC(=O)[C@H](CCN)NC1=O)[C@@H](C)O [(Ib13), nonanoyl-Arg-Thr-Dab-cyclo(S—S)[Cys-Dab-DPhe-Leu-Arg-Dab-DCys]] (Nonanoyl-RT[Dab]C[Dab][dF]LR[Dab][dC]-NH2; disulfide 4-10) | 11.98 | – | 2.99 | – | 5.99 | 5.99 | 8 | 11.98 | 11.98 | 16 | 5.99 to 11.98 | 8 to 16 | 16 | 4 | 8 | 16 | – | –
4 | CCCCCCCCC(=O)N[C@@H](CCCNC(=N)N)C(=O)N[C@H](C(=O)N[C@@H](CCN)C(=O)N[C@H]1CSSC[C@@H](C(=O)NCC(=O)N[C@@H](CCCNC(=N)N)C(=O)N[C@H](C(=O)N[C@@H](CCC(=O)O)C(=O)N[C@H](C(=O)N[C@@H](CC(C)C)C(=O)N[C@@H](Cc2ccc(O)cc2)C(=O)N[C@@H](CCCNC(=N)N)C(=O)NCC(=O)N[C@@H](CO)C(=O)N[C@@H](Cc2c[nH]c3ccccc23)C(N)=O)C(C)C)C(C)C)NC(=O)[C@H](CCN)NC(=O)[C@H](CCCNC(=N)N)NC(=O)[C@H](CC(C)C)NC(=O)[C@@H](Cc2ccccc2)NC(=O)[C@H](CCN)NC1=O)[C@@H](C)O [(Ib3)] (Nonanoyl-RT[Dab]C[Dab][dF]LR[Dab]CGRVEVLYRGSW-NH2; disulfide 4-10) | 6.06 | – | >12.12 | >32 | 6.06 | 3.03 to 6.06 | – | 1.51 | 6.06 | 16 | 6.06 | – | 16 | – | 16 | 4 | 16 | MIC Micrococcus luteus ([4]; ATCC 9341, pH 7.4): 8 to 16 µg/mL
5 | CCCCCCCCC(=O)N[C@@H](CCCNC(=N)N)C(=O)N[C@H](C(=O)N[C@@H](CCN)C(=O)N[C@H]1CCNC(=O)[C@H]([C@@H](C)O)NC(=O)[C@H](CCN)NC(=O)[C@H](CCCNC(=N)N)NC(=O)[C@H](CC(C)C)NC(=O)[C@@H](Cc2ccccc2)NC(=O)[C@H](CCN)NC1=O)[C@@H](C)O [(Ia1), nonanoyl-Arg-Thr-Dab-cyclo(4-10)[Dab-Dab-DPhe-Leu-Arg-Dab-Thr]] (Nonanoyl-RT[Dab][Dab][Dab][dF]LR[Dab]T; lactam 4-C) | 6.08 to 12.16 | 8 to 16 | 3.04 | – | 3.04 | 12.16 | 16 | 6.08 | 24.32 | 32 | 6.08 to 12.16 | 8 to 16 | – | 4 | 4 | 8 | – | –
